Measurements published in US20210317092A1 (BAYER PHARMA AKTIENGESELLSCHAFT, priority 2016, published 2021).
Read-outs that look alike come from different tables or passages of the source.

Target: T1, human Bradykinin B1 receptor (Homo sapiens, UniProt P46663)
T1 construct: host or cells: CHO-K1
T1 sequence (P46663 1-353): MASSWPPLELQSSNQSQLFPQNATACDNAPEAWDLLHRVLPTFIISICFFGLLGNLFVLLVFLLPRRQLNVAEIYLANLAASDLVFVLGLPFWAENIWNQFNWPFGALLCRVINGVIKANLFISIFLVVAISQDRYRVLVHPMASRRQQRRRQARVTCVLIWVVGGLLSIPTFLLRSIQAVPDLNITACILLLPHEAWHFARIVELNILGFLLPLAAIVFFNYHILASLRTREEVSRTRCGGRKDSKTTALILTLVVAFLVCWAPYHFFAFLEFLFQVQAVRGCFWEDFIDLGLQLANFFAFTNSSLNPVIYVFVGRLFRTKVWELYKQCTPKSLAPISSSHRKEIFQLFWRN
Assay: Calcium flux Assay (FLIPR) with recombinant CHO-K1 cells expressing human Bradykinin B1 receptor, in presence (hB1 IC50) or absence (hB1 free IC50) of 0.1% BSA
Assay type: cell-based
Protocol: The potency to inhibit the Bradykinin B1 receptor was determined for the compounds of this invention in a cell-based fluorescent calcium-mobilisation assay. The assay measures the ability of test compounds to inhibit Bradykinin B1 receptor agonist-induced increase of intracellular free Ca^2+ in the cell line expressing Bradykinin B1 receptor. […] The change of the intracellular Ca^2+ concentration is monitored with a fluorescent plate reader FLIPR TETRA® (Molecular Devices).
Calcium flux Assays (FLIPR) with cells expressing human Bradykinin B1 receptor (hB1)
CHO-K1 cell line expressing human Bradykinin B1 receptor was purchased from Euroscreen (Gosselies, Belgium, with reference name hB1-D1). The cells were grown in Nutrient Mixture Ham's F12 (Sigma) containing 10% Foetal bovine serum (Sigma) and 400 μg/mL G418 (Sigma), 5 μg/mL puromycim (Sigma). […]
Cells were seeded in a volume of 50 μL in medium without antibiotics and incubated overnight in a humidified atmosphere with 5% CO2 at 37° C. […] The calcium indicator loaded cells were incubated at 37° C. for 2 hrs. Extracellular dye was then removed and each well was filled with 45 μL of assay buffer. Cell plates were kept in dark until used. Compound examples were assayed at 8 concentrations in triplicate. Serial 10-fold dilutions in 100% DMSO were made at a 100-times higher concentration than the final concentration, and then diluted 1:10 in assay buffer. 5 μL of each diluted compound was added to the well of cell plates (yielding final concentration with 1% DMSO), and incubated for 30 min at 28° C. before the addition of Bradykinin B1 receptor agonist on the FLIPR instrument.
A peptide antagonist Lys-(Des-Arg-Leu)-Bradykinin (Bachem, Brackley) at 20 µM was used to determine the full inhibition as control.
Peak fluorescence was used to determine the response to agonist obtained at each concentration of compound examples by the following equation:
% Response=100*(RFU(compound)−RFU(control))/(RFU(DMSO)−RFU(control)) • RFU means relative fluorescence units. • Control means full inhibition by the peptide antagonist Lys-(Des-Arg-Leu)-Bradykinin at 20 µM.
The response values were plotted against the logarithm of the compound concentrations. The compound examples were tested in triplicates per plate and mean values were plotted in Excel XLfit to determine IC50 values, percentage of maximal inhibition and the Hill slopes.

[1] = in presence of 0.1% BSA, read-out: hB1 IC50
[2] = in absence of 0.1% BSA, read-out: hB1 free IC50

SMILES	IC50 [1]	IC50 [2]
COc1ccc(-c2ccc(NC(=O)C3(c4ccccn4)CC3)cc2-c2nnn[nH]2)cc1OC [Example 9]	660 nM	
COc1ccc(-c2ccc(NC(=O)C3(c4cccc(F)c4)CC3)cc2-c2nnn[nH]2)cc1OC [Example 10, N-[3′,4′-dimethoxy-2-(1H-tetrazol-5-yl)biphenyl-4-yl]-1-(3-fluorophenyl) cyclopropane-carboxamide]	68.8 nM	
COc1ccc(-c2ccc(NC(=O)C3(c4ccc(F)cc4)CC3)cc2-c2nnn[nH]2)cc1OC [Example 11, N-[3′,4′-dimethoxy-2-(1H-tetrazol-5-yl)biphenyl-4-yl]-1-(4-fluorophenyl) cyclopropane-carboxamide]	43 nM	
COc1ccc(-c2ccc(NC(=O)C3(c4cc(F)cc(F)c4)CC3)cc2-c2nnn[nH]2)cc1OC [Example 13, 1-(3,5-difluorophenyl)-N-[3′,4′-dimethoxy-2-(1H-tetrazol-5-yl)biphenyl-4-yl]cyclopropane carboxamide]	86.6 nM	
COc1ccc(-c2ccc(NC(=O)C3(c4ccc(F)c(Cl)c4)CC3)cc2-c2nnn[nH]2)cc1OC [Example 14, 1-(3-chloro-4-fluorophenyl)-N-[3′,4′-dimethoxy-2-(1H-tetrazol-5-yl)biphenyl-4-yl]cyclopropane carboxamide]	101 nM	
COc1ccc(-c2ccc(NC(=O)C3(c4cc(F)cc(Cl)c4)CC3)cc2-c2nnn[nH]2)cc1OC [Example 15, 1-(3-chloro-5-fluorophenyl)-N-[3′,4′-dimethoxy-2-(1H-tetrazol-5-yl)biphenyl-4-yl]cyclopropane carboxamide]	40.9 nM	
COc1ccc(-c2ccc(NC(=O)C3(c4ccc(OC(F)(F)F)cc4)CC3)cc2-c2nnn[nH]2)cc1OC [Example 19, N-[3′,4′-dimethoxy-2-(1H-tetrazol-5-yl)biphenyl-4-yl]-1-[4-(trifluoromethoxy)phenyl] cyclopropane-carboxamide]	42.9 nM	
COc1ccc(-c2ccc(NC(=O)C3(c4ccc(C(F)(F)F)cc4F)CC3)cc2-c2nnn[nH]2)cc1OC [Example 20, N-[3′,4′-dimethoxy-2-(1H-tetrazol-5-yl)biphenyl-4-yl]-1-[2-fluoro-4-(trifluoromethyl)phenyl] cyclopropane-carboxamide]	54.4 nM	29.2 nM
COc1ccc(-c2ccc(NC(=O)C3(c4cc(F)ccc4F)CC3)cc2-c2nnn[nH]2)cc1OC [Example 21, 1-(2,5-difluorophenyl)-N-[3′,4′-dimethoxy-2-(1H-tetrazol-5-yl)biphenyl-4-yl]cyclopropane carboxamide]	367 nM	
COc1ccc(-c2ccc(NC(=O)C3(c4cccc(OC(F)F)c4)CC3)cc2-c2nnn[nH]2)cc1OC [Example 22, 1-[3-(difluoromethoxy)phenyl]-N-[3′,4′-dimethoxy-2-(1H-tetrazol-5-yl)biphenyl-4-yl]cyclopropane carboxamide]	212 nM	
COc1ccc(C2(C(=O)Nc3ccc(-c4ccc(OC)c(OC)c4)c(-c4nnn[nH]4)c3)CC2)cc1F [Example 24, N-[3′,4′-dimethoxy-2-(1H-tetrazol-5-yl)biphenyl-4-yl]-1-(3-fluoro-4-methoxyphenyl) cyclopropane-carboxamide]	232 nM	
COc1ccc(-c2ccc(NC(=O)C3(c4ccc(F)c(F)c4)CC3)cc2-c2nnn[nH]2)cc1OC [Example 25, 1-(3,4-difluorophenyl)-N-[3′,4′-dimethoxy-2-(1H-tetrazol-5-yl)biphenyl-4-yl]cyclopropane-carboxamide]	57.4 nM	25.9 nM
COc1ccc(-c2ccc(NC(=O)C3(c4cccc(F)c4F)CC3)cc2-c2nnn[nH]2)cc1OC [Example 26, 1-(2,3-difluorophenyl)-N-[3′,4′-dimethoxy-2-(1H-tetrazol-5-yl)biphenyl-4-yl]cyclopropane carboxamide]	91.7 nM	
COc1ccc(-c2ccc(NC(=O)C3(c4cc(C(F)(F)F)ccc4F)CC3)cc2-c2nnn[nH]2)cc1OC [Example 27, N-[3′,4′-dimethoxy-2-(1H-tetrazol-5-yl)biphenyl-4-yl]-1-[2-fluoro-5-(trifluoromethyl)phenyl] cyclopropane-carboxamide]	51.5 nM	
COc1ccc(-c2ccc(NC(=O)C3(c4ccc(F)cc4Cl)CC3)cc2-c2nnn[nH]2)cc1OC [Example 28, 1-(2-chloro-4-fluorophenyl)-N-[3′,4′-dimethoxy-2-(1H-tetrazol-5-yl)biphenyl-4-yl]cyclopropane carboxamide]	138 nM	
COc1ccc(-c2ccc(NC(=O)C3(c4c(F)cccc4F)CC3)cc2-c2nnn[nH]2)cc1OC [Example 29, 1-(2,6-difluorophenyl)-N-[3′,4′-dimethoxy-2-(1H-tetrazol-5-yl)biphenyl-4-yl]cyclopropane carboxamide]	167 nM	
COc1ccc(-c2ccc(NC(=O)C3(c4cc(F)ccc4Cl)CC3)cc2-c2nnn[nH]2)cc1OC [Example 30, 1-(2-chloro-5-fluorophenyl)-N-[3′,4′-dimethoxy-2-(1H-tetrazol-5-yl)biphenyl-4-yl]cyclopropane carboxamide]	201 nM	
COc1ccc(F)c(C2(C(=O)Nc3ccc(-c4ccc(OC)c(OC)c4)c(-c4nnn[nH]4)c3)CC2)c1 [Example 31, N-[3′,4′-dimethoxy-2-(1H-tetrazol-5-yl)biphenyl-4-yl]-1-(2-fluoro-5-methoxyphenyl) cyclopropane-carboxamide]	212 nM	
COc1cc(F)cc(C2(C(=O)Nc3ccc(-c4ccc(OC)c(OC)c4)c(-c4nnn[nH]4)c3)CC2)c1 [Example 32]	41.6 nM	
COc1cc(C2(C(=O)Nc3ccc(-c4ccc(OC)c(OC)c4)c(-c4nnn[nH]4)c3)CC2)ccc1F [Example 33, N-[3′,4′-dimethoxy-2-(1H-tetrazol-5-yl)biphenyl-4-yl]-1-(4-fluoro-3-methoxyphenyl) cyclopropane-carboxamide]	238 nM	284 nM
COc1ccc(-c2ccc(NC(=O)C3(C(F)(F)F)CC3)cc2-c2nnn[nH]2)cc1OC [Example 34, N-[3′,4′-dimethoxy-2-(1H-tetrazol-5-yl)biphenyl-4-yl]-1-(trifluoromethyl) cyclopropane-carboxamide]	603 nM	
COc1ccc(-c2ccc(NC(=O)C3(c4ccccc4)CC3)cc2-c2nnn[nH]2)cc1OC [Example 35, N-[3′,4′-dimethoxy-2-(1H-tetrazol-5-yl)biphenyl-4-yl]-1-phenylcyclo-propane-carboxamide]	213 nM	
COc1ccc(-c2ccc(NC(=O)C3(c4ccccc4C)CC3)cc2-c2nnn[nH]2)cc1OC [Example 37, N-[3′,4′-dimethoxy-2-(1H-tetrazol-5-yl)biphenyl-4-yl]-1-(2-methylphenyl) cyclopropane-carboxamide]	1830 nM	
COc1ccc(-c2ccc(NC(=O)C3(c4cccc(C(F)(F)F)c4)CC3)cc2-c2nnn[nH]2)cc1OC [Example 38, N-[3′,4′-dimethoxy-2-(1H-tetrazol-5-yl)biphenyl-4-yl]-1-[3-(trifluoromethyl)phenyl] cyclopropane-carboxamide]	38.8 nM	13.7 nM
COc1ccc(-c2ccc(NC(=O)C3(c4cccc(C)c4)CC3)cc2-c2nnn[nH]2)cc1OC [Example 39, N-[3′,4′-dimethoxy-2-(1H-tetrazol-5-yl)biphenyl-4-yl]-1-(3-methylphenyl) cyclopropane-carboxamide]	80.3 nM	
